Values quoted from earlier work, collected in US12343354B2, “Injection containing p-boronophenylalanine” (Stella Pharma Corporation, priority 2019, dated 2025).

Conditions: physiological pH

SMILES: N[C@@H](Cc1ccc(B(O)O)cc1)C(=O)O [p-Boronophenylalanine, p-boronophenylalanine]
- solubility: very poor solubility
